Data set [1] relates to Mycobacterium avium. Nature of the data set: In vitro antibacterial activity of compound against Mycobacterium avium MAC ANI (wild type strain) isolated from infected patients. Format: functional.
The test system of data set [2] is Mycobacterium tuberculosis. Briefly: In vitro antibacterial activity against Mycobacterium tuberculosis MT ATCC H37Rv strain. It counts as functional.
A short description of data set [3]: Volume of steady state distribution after i.v. administration in rats. It counts as ADME, organism-based. The conditions noted are these: rat, in vivo, iv; read-out: Vss.
For data set [4], the system named is Mycobacterium tuberculosis. Briefly: In vitro antibacterial activity against Mycobacterium tuberculosis MT-1 (wild type strain) isolated from infected patients. It counts as functional.
Data set [5] concerns Mycobacterium avium. Briefly: In vitro antibacterial activity of compound against Mycobacterium avium MAC AN3 (wild type strain) isolated from infected patients. It counts as functional.
A short description of data set [6]: Area under the curve (Concentration) was determined for the compound as AUC with limits 0-8 after i.v. administration in rats. The conditions noted are these: rat, in vivo, iv. More on the design: route intravenous. Format: ADME, organism-based.
The test system of data set [7] is Mycobacterium tuberculosis. Nature of the data set: In vitro antibacterial activity against Mycobacterium tuberculosis MT-2 (wild type strain) isolated from infected patients. It counts as functional.
Data set [8] is described as follows: Toxicity after intraperitoneal administration in rats and mice. The conditions noted are these: rodentia, in vivo, ip.
Data set [9] in a line: Clearance rate after i.v. administration in rats. It counts as ADME, organism-based. The conditions noted are these: rat, in vivo, iv.
In data set [10] the test system is Mycobacterium avium. Briefly: In vitro antibacterial activity of compound against Mycobacterium avium MAC ATCC 15769. It counts as functional.
In data set [11] the test system is Mycobacterium avium. Briefly: In vitro antibacterial activity of compound against Mycobacterium avium MAC ISS-486 (wild type strain) isolated from infected patients. It counts as functional.
Data set [12] can be described thus: Elimination half life after i.v. administration of compound in rats. Format: ADME, organism-based. Conditions: rat, in vivo, iv.
In data set [13] the test system is Mycobacterium avium. Briefly: In vitro antibacterial activity of compound against Mycobacterium avium MAC AN2 wild type strain) isolated from infected patients. Format: functional.
Data set [14] in a line: Mean residence time (Pharmacokinetic property) after i.v. administration in rats. Conditions: rat, in vivo, iv. Format: ADME, organism-based.

In brackets after ≈: the same amount, converted by molar mass.

Broadly, the MIC is the least concentration at which growth counts as inhibited. Read a high MIC as a need for much substance. What is called AUC is the area under the concentration-time curve, a measure of exposure. The term LD50 denotes the dose at which mortality reaches 50%. Low values mean greater toxicity, high ones lower toxicity. By clearance is commonly meant the rate of elimination divided by the concentration. High values mean efficient removal, low ones inefficient removal. A word on the half-life: it is how long it takes for the measured level to halve. A low value points to fast loss. A word on the MRT: it is the average time that molecules of a dose stay in the body. Consider `Cl.S/C(=N\CCc1ccccn1)c1cccnc1S`, for which the MIC amounted to 8 µg/mL in the data set on Mycobacterium avium [1]; 4 µg/mL in data set [2]; 4 µg/mL in data set [4]; 8 µg/mL in the data set with Mycobacterium avium [5]; 1 µg/mL in [7]; 4 µg/mL in the data set with Mycobacterium avium [10]. Moreover, the MIC against Mycobacterium avium [11] and against Mycobacterium avium [13] was 8 µg/mL in each case. The Vd in data set [3] worked out at 14.5 L/kg. In [6], the AUC turned out to be 4700 ng·h/mL. For the same compound, in [8], the LD50 is more than 2000 mg/kg. The clearance in data set [9] was 144 mL/min/kg. Besides, in [12], the half-life is 2.22 h. For the same compound, the MRT in data set [14] came out at 1.77 h.
`CN(C)CC/N=C(\S)c1cccnc1S.Cl`: the MIC in the data set with Mycobacterium avium [1] is more than 16 µg/mL; in data set [2], 8 µg/mL; in data set [4], 16 µg/mL; with Mycobacterium avium [5], more than 16 µg/mL; in data set [7] it was more than 16 µg/mL; against Mycobacterium avium [10], more than 16 µg/mL. In addition, the MIC in the data set with Mycobacterium avium [11] and against Mycobacterium avium [13] was more than 16 µg/mL throughout. The Vd in data set [3] came out at 11.2 L/kg. The same compound gave an AUC in data set [6] of 6910 ng·h/mL. This compound gave an LD50 in [8] of more than 2000 mg/kg. Besides, in [9], the clearance was 60.8 mL/min/kg. The compound also showed a half-life in [12] of 2.72 h. Also, the MRT in [14] amounted to 2.83 h.
Regarding `CN1CCN(CCC/N=C(\S)c2cccnc2S)CC1.Cl`, the minimal inhibitory concentration (MIC) with Mycobacterium avium [1] is more than 16 µg/mL; in [2], 8 µg/mL; in data set [4] it was 16 µg/mL; in the data set with Mycobacterium avium [5], more than 16 µg/mL; in data set [7], more than 16 µg/mL; against Mycobacterium avium [10], more than 16 µg/mL. Further, the MIC in the data set with Mycobacterium avium [11] and in the data set on Mycobacterium avium [13] was more than 16 µg/mL in each case.
For `OCC/N=C(\S)c1cccnc1S`, the MIC in the data set with Mycobacterium avium [1] was determined as 4 µg/mL (≈ 18.7 µM); in [2], 2 µg/mL (≈ 9.33 µM); in data set [4] it was 4 µg/mL (≈ 18.7 µM); in the data set with Mycobacterium avium [5] it was 4 µg/mL (≈ 18.7 µM); in [7] it was 8 µg/mL (≈ 37.3 µM); in the data set with Mycobacterium avium [10], 8 µg/mL (≈ 37.3 µM). The MIC against Mycobacterium avium [11] and against Mycobacterium avium [13] was 8 µg/mL (≈ 37.3 µM) throughout. Also, the Vd in [3] was 4.17 L/kg. In addition, in [6], the AUC is 3730 ng·h/mL. In addition, the LD50 in data set [8] is more than 2000 mg/kg. Besides, the clearance in data set [9] was 93.2 mL/min/kg. This compound had a half-life in data set [12] of 0.67 h. In data set [14], this compound returned an MRT of 0.72 h.
In the case of `CC[C@@H](CO)NCCN[C@@H](CC)CO` [ETHAMBUTOL], the MIC was 1 µg/mL (≈ 4.89 µM) with Mycobacterium avium [1]; not above 2 µg/mL in [2]; not above 2 µg/mL in data set [4]; 2 µg/mL (≈ 9.79 µM) in the data set on Mycobacterium avium [5]; not above 2 µg/mL in [7]; 2 µg/mL (≈ 9.79 µM) against Mycobacterium avium [11]. This compound gave a minimal inhibitory concentration (MIC) against Mycobacterium avium [13] of 0.5 µg/mL (≈ 2.45 µM).
As for `CCCCCCC/N=C(\S)c1cccnc1S`, the MIC against Mycobacterium avium [1] came to 4 µg/mL (≈ 14.9 µM); in data set [2], 0.5 µg/mL (≈ 1.86 µM); in data set [4], 2 µg/mL (≈ 7.45 µM); with Mycobacterium avium [5], 4 µg/mL (≈ 14.9 µM); in [7], 2 µg/mL (≈ 7.45 µM); in the data set with Mycobacterium avium [10] it was 2 µg/mL (≈ 7.45 µM). For the same compound, the MIC against Mycobacterium avium [11] and in the data set with Mycobacterium avium [13] was 4 µg/mL (≈ 14.9 µM) throughout. In data set [3], the Vd turned out to be 1.28 L/kg. In data set [6], this compound registered an AUC of 8250 ng·h/mL. This compound also showed a clearance in data set [9] of 50 mL/min/kg.
For `CC/N=C(\S)c1cccnc1S`, the MIC was 4 µg/mL (≈ 20.2 µM) in the data set on Mycobacterium avium [1]; 0.5 µg/mL (≈ 2.52 µM) in data set [2]; 1 µg/mL (≈ 5.04 µM) in data set [4]; 8 µg/mL (≈ 40.3 µM) against Mycobacterium avium [5]; 1 µg/mL (≈ 5.04 µM) in data set [7]; 4 µg/mL (≈ 20.2 µM) with Mycobacterium avium [10]. For the same compound, the MIC came to 4 µg/mL (≈ 20.2 µM) against Mycobacterium avium [11] and 8 µg/mL (≈ 40.3 µM) against Mycobacterium avium [13]. Also, the Vd in [3] was 0.93 L/kg. The compound further yielded an AUC in [6] of 15800 ng·h/mL. This compound showed a clearance in data set [9] of 20 mL/min/kg.
In the case of `Cl.S/C(=N\CCCN1CCOCC1)c1cccnc1S`, the minimal inhibitory concentration (MIC) is more than 16 µg/mL in the data set with Mycobacterium avium [1]; 4 µg/mL in [2]; 8 µg/mL in data set [4]; more than 16 µg/mL in the data set with Mycobacterium avium [5]; 8 µg/mL in [7]; more than 16 µg/mL against Mycobacterium avium [10]. In addition, the MIC in the data set with Mycobacterium avium [11] and in the data set with Mycobacterium avium [13] was more than 16 µg/mL throughout.
For the compound `Cl.S/C(=N\CCN1CCCC1)c1cccnc1S`, the MIC in the data set on Mycobacterium avium [1] is more than 16 µg/mL; in data set [2] it was 8 µg/mL; in data set [4], 16 µg/mL; in the data set on Mycobacterium avium [5], more than 16 µg/mL; in [7], more than 16 µg/mL; in the data set with Mycobacterium avium [10] it was more than 16 µg/mL. Further, the MIC in the data set with Mycobacterium avium [11] and against Mycobacterium avium [13] was more than 16 µg/mL throughout.

The values are drawn from ChEMBL document CHEMBL1135319, “New N-alkyl-1,2-dihydro-2-thioxo-3-pyridinecarbothioamides as antituberculous agents with improved pharmacokinetics” (Bioorg Med Chem Lett, 2002).
